Reference: paper PMC5919688, “Cyclic di-AMP regulation of osmotic homeostasis is essential in Group B Streptococcus” (PLoS Genetics, 2018)

Legend:
[1] = biological target: T1, DacA (rDacA) (Streptococcus agalactiae, UniProt Q8E051); test: RP-HPLC of c-di-AMP formation; format: biochemical; details: 2.5 uM rDacA, 1 mM ATP, 50 mM Tris pH 8.5, 100 mM NaCl, 10 mM MnCl2, 37 C
T1 construct: amino acids 96-243, transmembrane domain deleted, N-terminal 6xHis (pET28a), E. coli Bli5, purified
T1 sequence (Q8E051 96-243): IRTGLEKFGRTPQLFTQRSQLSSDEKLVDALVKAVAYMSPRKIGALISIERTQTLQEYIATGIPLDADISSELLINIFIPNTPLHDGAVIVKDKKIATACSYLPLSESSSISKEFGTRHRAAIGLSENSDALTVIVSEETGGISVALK

[2] = biological target: T2, KtrA (Gbs1678) (Streptococcus agalactiae, UniProt Q8E3S8); test: DRaCALA, […]-labelled c-di-AMP, whole E. coli extract; format: binding; details: […]P-c-di-AMP, […] Tris pH […] NaCl, […] MgCl2, room temperature; labelled compound; competition with […] cold nucleotide
T2 construct: full length, N-terminal His or His-MBP tag, expressed in E. coli Bli5, whole-cell extract
T2 sequence (Q8E3S8 1-223): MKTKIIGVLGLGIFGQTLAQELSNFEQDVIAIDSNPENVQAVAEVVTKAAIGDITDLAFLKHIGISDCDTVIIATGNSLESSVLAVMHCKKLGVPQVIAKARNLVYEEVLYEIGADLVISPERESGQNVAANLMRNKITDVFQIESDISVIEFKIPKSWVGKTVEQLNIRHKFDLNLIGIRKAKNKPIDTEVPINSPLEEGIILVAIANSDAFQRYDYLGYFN

[3] = biological target: T3, OpuCA (Gbs0235) (Streptococcus agalactiae, UniProt Q8E7C0); test: as above; format: binding; details: […]P-c-di-AMP, […] Tris pH […] NaCl, […] MgCl2, room temperature; labelled compound; competition with […] cold nucleotide
T3 construct: full length, N-terminal His-MBP tag (signal only with this tag), expressed in E. coli Bli5, whole-cell extract
T3 sequence (Q8E7C0 1-381): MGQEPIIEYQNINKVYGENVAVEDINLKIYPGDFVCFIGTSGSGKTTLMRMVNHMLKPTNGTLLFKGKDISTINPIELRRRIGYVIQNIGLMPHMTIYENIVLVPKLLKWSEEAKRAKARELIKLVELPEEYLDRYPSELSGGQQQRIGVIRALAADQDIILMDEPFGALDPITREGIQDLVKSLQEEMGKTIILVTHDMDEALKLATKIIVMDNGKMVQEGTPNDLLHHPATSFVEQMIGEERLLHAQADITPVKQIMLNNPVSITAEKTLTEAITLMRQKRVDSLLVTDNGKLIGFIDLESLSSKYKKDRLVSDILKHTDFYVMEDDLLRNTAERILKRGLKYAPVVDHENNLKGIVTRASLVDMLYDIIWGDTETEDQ

[4] = biological target: T4, TrkH (Gbs1639) (Streptococcus agalactiae, UniProt Q8DYA0); test: as above; format: binding; details: 1 nM 32P-c-di-AMP, 40 mM Tris pH 7.5, 100 mM NaCl, 10 mM MgCl2, room temperature; labelled compound; competition with 200 uM cold nucleotide
T4 construct: gene SAG1590; full length, N-terminal His tag (detected by Western only with the His tag), expressed in E. coli Bli5, whole-cell extract
T4 sequence (Q8DYA0 1-449): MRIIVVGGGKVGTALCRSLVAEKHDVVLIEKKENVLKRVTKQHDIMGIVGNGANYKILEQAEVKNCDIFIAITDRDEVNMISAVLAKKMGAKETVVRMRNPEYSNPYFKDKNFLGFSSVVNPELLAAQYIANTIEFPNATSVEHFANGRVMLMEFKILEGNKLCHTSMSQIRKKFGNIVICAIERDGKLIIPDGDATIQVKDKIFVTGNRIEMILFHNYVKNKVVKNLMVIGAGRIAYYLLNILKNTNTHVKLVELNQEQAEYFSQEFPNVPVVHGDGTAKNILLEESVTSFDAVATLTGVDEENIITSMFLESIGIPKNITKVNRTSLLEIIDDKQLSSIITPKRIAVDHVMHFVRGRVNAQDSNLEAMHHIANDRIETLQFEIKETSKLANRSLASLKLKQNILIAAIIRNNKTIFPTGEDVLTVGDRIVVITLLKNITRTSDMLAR

[5] = biological target: T5, BusR (Gbs1201) (Streptococcus agalactiae, UniProt I7JWA3); test: as above; format: binding; details: 1 nM 32P-c-di-AMP, 40 mM Tris pH 7.5, 100 mM NaCl, 10 mM MgCl2, room temperature; labelled compound; competition with 200 uM cold nucleotide
T5 construct: gene BM110_ORF1201; full length (213 aa), N-terminal His or His-MBP tag, expressed in E. coli Bli5, whole-cell extract
T5 sequence (I7JWA3 1-213): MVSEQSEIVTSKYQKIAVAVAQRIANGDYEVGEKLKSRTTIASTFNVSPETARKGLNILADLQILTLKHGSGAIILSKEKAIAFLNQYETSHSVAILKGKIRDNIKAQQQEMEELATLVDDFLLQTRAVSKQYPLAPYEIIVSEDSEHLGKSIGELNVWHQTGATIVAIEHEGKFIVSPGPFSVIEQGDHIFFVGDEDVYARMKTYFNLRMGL

[6] = tested on: T6, BusR (rBusR) (Streptococcus agalactiae NEM316), ORF:6b20ee22; test: EMSA; details: 25 mM Na2HPO4/NaH2PO4 pH 8, 50 mM NaCl, 2 mM MgCl2, 1 mM DTT, 10% glycerol, 0.1 ug/ul poly(dI-dC), 0.02 ug/ul BSA, 20 min room temperature; 6% PAGE at 4 C
T6 sequence: T5 sequence (I7JWA3 1-213)

| Compound | RP-HPLC of c-di-AMP formation [1] | DRaCALA, 32P-labelled c-di-AMP, whole E. coli extract [2] | DRaCALA, 32P-labelled c-di-AMP, whole E. coli extract [3] | DRaCALA, 32P-labelled c-di-AMP, whole E. coli extract [4] | DRaCALA, 32P-labelled c-di-AMP, whole E. coli extract [5] | binding [6] |
| --- | --- | --- | --- | --- | --- | --- |
| Nc1ncnc2c1ncn2[C@@H]1O[C@H](COP(=O)(O)OP(=O)(O)OP(=O)(O)O)[C@@H](O)[C@H]1O [ATP] | the purified recombinant DacA protein produces c-di-AMP from two molecules of ATP |  |  |  |  |  |
| Nc1ncnc2c1ncn2[C@@H]1O[C@@H]2COP(=O)(O)O[C@H]3[C@@H](O)[C@H](n4cnc5c(N)ncnc54)O[C@@H]3COP(=O)(O)O[C@H]2[C@H]1O [c-di-AMP] | the purified recombinant DacA protein produces c-di-AMP from two molecules of ATP | C-di-AMP binds to four proteins: KtrA (Gbs1678) | C-di-AMP binds to four proteins: KtrA (Gbs1678), TrkH (Gbs1639), OpuCA (Gbs0235) | C-di-AMP binds to four proteins: KtrA (Gbs1678), TrkH (Gbs1639) | C-di-AMP binds to four proteins: KtrA (Gbs1678), TrkH (Gbs1639), OpuCA (Gbs0235) and Gbs1201 |  |
| AGTTGTAATATTAATACTAATAAGTCTTTAAATAATTCAATAATGCCATAACAATAATGGTGTGGGCTAATTAAAATATCTCTAAGCAAAGGTGTTGACATAAAGAGACCATACATGATATTATAGTTATGTTCTGTTTCGGCAGTTTATTTTTTTGAGTAAAAAAGTGACTACCCTTTTACGATACTTTAACGTCACTTTATAGATAAGACACATAACCTTAAAAATAAGATACGAAATT (double strand) [PbusAB EMSA fragment (245 bp)] |  |  |  |  |  | binds |
